The test system of series [1] is tumor vasculature of orthotopic colorectal cancer. As to the kind of experiment: Therapeutic treatment with proapoptotic conjugate, cleaved caspase 3/CD31 staining. Type of series: in vivo. From the text:
We conjugated TCP-1 with a pro-apoptotic peptide, D(KLAKLAK)2, which disrupts mitochondrial membranes upon receptor-mediated cell internalization and causes programmed cell death. This approach has been successfully employed for targeted apoptosis induction in angiogenic endothelial cells, tumor lymphatics and the vasculature of white fat. See: Zhang L, Giraudo E, Hoffman J A, Hanahan D, and Ruoslahti E (2006). Lymphatic zip codes in premalignant lesions and tumors. Cancer Res 66, 5696-5706; Kolonin M G, Saha P K, Chan L, Pasqualini R, and Arap W (2004). Reversal of obesity by targeted ablation of adipose tissue. Nat Med 10, 625-632; and, Ellerby H M, Arap W, Ellerby L M, Kain R, Andrusiak R, Rio G D, Krajewski S, Lombardo C R, Rao R, Ruoslahti E, et al. (1999). Anti-cancer activity of targeted pro-apoptotic peptides. Nat Med 5, 1032-1038. All-D enantiomer D(KLAKLAK)2 was used to avoid degradation by proteases. Ellerby H M, et al., (1999) Nat Med 5, 1032-1038.
Mice bearing orthotopic colorectal cancer were randomized into three groups. The therapeutic group was i.v. injected 260 μg/dose/mouse of the conjugated CTPSPFSHC-GG-D(KLAKLAK)2 [CDK]. Control groups received an equimolar mixture of CTPSPFSHC (SEQ ID NO:1) and D(KLAKLAK)2 [DKK], or PBS alone once every three days. Treatment was terminated 7 days after the first peptide administration as described in Kolonin M G, Saha P K, Chan L, Pasqualini R, and Arap W (2004). Reversal of obesity by targeted ablation of adipose tissue. Nat Med 10, 625-632 and Giordano R J, Landenranta J, Zhen L, Chukwueke U, Petrache I, Langley R R, Fidler I J, Pasqualini R, Tuder R M, and Arap W (2008). Targeted induction of lung endothelial cell apoptosis causes emphysema-like changes in the mouse. J Biol Chem 283, 29447-29460.
Tumors and control organs were dissected at the termination of the experiment. Histologic analysis was done to evaluate the density of tumor blood vessels. Apoptotic vascular endothelial cells were visualized by double staining with anticleaved caspase-3 and CD31 antibodies. […]

Series [2] deals with SW1116 cells. As to the kind of experiment: In vitro cell viability assay (MTT assay), SW1116. Particulars: SW1116, 48 h, increasing concentrations. The format is cell-based, human. Here is the method:
(§1) Cell lines and cell culture: The murine colorectal cancer cell colon 26, human colon cancer cell SW1116 were cultured at 37° C. in a humidified atmosphere containing 5% CO2, in RPMI-1640 medium supplemented with 2 g/L sodium bicarbonate, 100 units/ml penicillin, […] streptomycin and 10% FBS.
(§2) In vitro cell viability assay (MTT assay): Cell viability was assessed by MTT assay, which depends on the ability of viable cells to reduce the MTT to a colored formazan product. In brief, cells (10^4 cells per well) were seeded in 96-well microculture plates overnight for attachment, and then incubated with increasing concentrations of the peptides CTPSPFSHC-GG-D(KLAKLAK)2 or CTPSPFSHC (SEQ ID NO:1) or D(KLAKLAK)2 in 100 μl of 1% FBS in DMEM for 6˜48 hours at 37° C. In the next step, MTT was added to each well, and the cells were further incubated for 3 h. The colored formazan product was determined photometrically at 570 nm in a multi-well plate reader (Bio-Rad).
(§3) TCP-1 conjugate and induction of apoptosis in colorectal cancer cells: Next, in order to examine whether the TCP-1 peptide could serve as a drug carrier into cancer cells, we synthesized a chimeric peptide of TCP-1 peptide to a proapoptotic peptide D(KLAKLAK)2, which disrupts mitochondrial membranes upon receptor-mediated cell internalization and causes programmed cell death. Increasing concentrations of TCP-1 conjugate (TCP-GG-D(KLAKLAK)2), equimolar TCP-1 or D(KLAKLAK)2 were incubated with colon 26 or SW1116 cells at 37° C. Cell viability was assessed after 6 h (colon 26) and 48 h (SW1116). The effect of TCP-1 conjugate on the cell viability was determined and compared respectively with TCP-1 or D(KLAKLAK)2 alone.
(Tetrazolium dyes change colour on reduction, which living cells bring about.)

Series [3] concerns colon 26 cells. Nature of the series: In vitro cell viability assay (MTT assay), colon 26. The format is cell-based, murine. The conditions noted are these: colon 26, 6 h, increasing concentrations. Here is the method:
as §1, §2, §3

Series [4] has as its system blood vessels of human colon and rectal adenocarcinoma tissues. As to the kind of experiment: Peptide binding to tissue sections from human cancer. Particulars: for binding to blood vessels of cancer tissues / binding to vasculature of normal colon tissues: 10 μmol/L, 1 hour, 37° C., human biopsy sections. Here is the method:
To establish the ability of TCP-1 to selectively bind to the vasculature of human tumors, human biopsy samples were studied. They were double stained and images photographically overlayed to determine tissue specificity. More specifically, multiple human biopsy samples containing both colon adenocarcinoma and normal colonic tissue were snap frozen, embedded in OCT, cut into 5 μm sections, and then arrayed on slides. The slides were incubated with 10 μmol/L FITC-CTPSPFSHC (SEQ ID NO:2) or FITC-CVQTAQLLC (SEQ ID NO:3) for 1 hour at 37° C., washed three times with PBS, fixed with 4% paraformaldehyde. Blood vessels were stained with mouse anti-human CD31 monoclonal antibody and Alexa Fluor 568 goat anti-mouse IgG as above described.
The positive binding was usually found in tumor tissues at more advanced stages (in terms of lymphovascular permeation, T staging, N staging, and overall Dukes' staging).

Series [5] has as its system orthotopic colorectal tumors. As to the kind of experiment: Organ level imaging of tumor tissues with FITC-labeled peptide. Type of series: in vivo, mice. Here is the method: Imaging of tissue was done under a blue light, by using the imaging system of KODAK Image Station 2000MM.
To determine whether FITC-labeled TCP-1 accumulated into the tumor tissues can be visualized at the organ level, tumor-bearing mice were injected intravenously with FITC-labeled TCP-1, control peptide or PBS alone. More specifically, tumor-bearing mice were i.v. injected with 500 nmol fluorescein-conjugated peptide (in 500 μl PBS). The peptide was allowed to circulate for 20 hour. The mice were killed, and various tissues were excised and examined for fluorescence. Organ imaging was done under a blue light, by using the imaging system of KODAK Image Station 2000MM.
Further, FITC-labeled TCP-1 could specifically accumulate in the tumor tissues with various volumes (diameter 2 mm, 6 mm, 8 mm tested) (FIG. 5B).

In series [6] the test system is blood vessels (CD31) in orthotopic colorectal tumor tissues. As to the kind of experiment: Biodistribution of FITC-conjugated peptide, colorectal cancer model. The format is in vivo, mouse. The conditions noted are these: 300 nmol i.v., 1 hour circulation. Here is the method: To further confirm whether the selective phage homing was due to the CTPSPFSHC (SEQ ID NO:1) peptide (TCP-1), chemically synthetic FITC-conjugated TCP-1 or control peptide was intravenously injected into tumor-bearing mice to study the location of the peptide. Biodistribution of fluorescein-conjugated peptides was examined after i.v. injection of the peptide (300 nmol in 300 μl PBS) into the tail vein of a tumor-bearing mouse. The peptide was allowed to circulate for 1 hour.
Tumor and control tissues were collected and frozen sections prepared as described above in Example 1. Blood vessels were stained by CD31 antibody (secondary antibody conjugated Alexa-568). […] FITC-labeled control peptide was not found in the tumor tissues (FIG. 4A). Taken together with the immunolocalization analyses of TCP-1 phage homing, the peptide localization data confirmed that TCP-1 peptide homed specifically to blood vessels in tumor tissues but not to the vasculature of control organs.

Series [7] concerns blood vessels (CD31) in gastric cancer tissues. As to the kind of experiment: Biodistribution of FITC-conjugated peptide, gastric cancer model. The format is in vivo, mouse. The conditions noted are these: 300 nmol i.v., 1 hour circulation. Here is the method: To further confirm whether the selective phage homing was due to the CTPSPFSHC (SEQ ID NO:1) peptide (TCP-1), chemically synthetic FITC-conjugated TCP-1 or control peptide was intravenously injected into gastric cancer-bearing mice to study the location of the peptide. Biodistribution of fluorescein-conjugated peptides was examined after i.v. injection of the peptide (300 nmol in 300 μl PBS) into the tail vein of a gastric cancer-bearing mouse. The peptide was allowed to circulate for 1 hour.
Tumor and control tissues were collected and frozen sections prepared as described above. Blood vessels were stained by CD31 antibody (secondary antibody conjugated Alexa-568). […] FITC-labeled control peptide was not found in the tumor tissues (FIG. 10 bottom). Taken together with the immunolocalization analyses of TCP-1 phage homing, the peptide localization data confirmed that TCP-1 peptide also homed specifically to blood vessels in gastric cancer tissues but not to the vasculature of control organs.

Where [8] appears, read: 500 nmol i.v., 20 h after injection.

Where no end group is shown, it is not given here. The star is where a group is joined. FITC = O=C1OC2(c3ccc(O)cc3Oc3cc(O)ccc32)c2ccc(NC(=S)*)cc21

Take “CTPSPFSHC-GG-D(KLAKLAK)2 [TCP-GG-D(KLAKLAK)2]”: in series [1] (260 μg/dose/mouse i.v. once every three days, 7 days, vs PBS or uncoupled mixture), the “vasculature endothelial cells expressing active caspase 3 in tumors” value is on record as “obvious increase”. The “quantification of active caspase 3: apoptotic cells in the tumor vasculature” value in series [1] (260 μg/dose/mouse i.v., compared to the other two groups) is “remarkable increased number of apoptotic cells”. Also, the “apoptotic vasculature in normal colon tissues and brain tissues” value in series [1] (mouse, in vivo) is on record as “hardly active caspase-3 positive cells”. Further, the “effect on cell viability” value was “inhibited the proliferation of colon 26 and SW1116 cells more efficiently than D(KLAKLAK)2 alone” in series [2]; “inhibited the proliferation of colon 26 and SW1116 cells more efficiently than D(KLAKLAK)2 alone” in series [3].

Take D(KLAKLAK)2 [reference compound]: the “effect on cell viability” value in series [2] and in series [3] was “much weaker toxic effects” in each case.

Turning to “FITC-CTPSPFSHC ({FITC}-CTPSPFSHC; cysteine pairing not given here) [FITC-labeled TCP-1, FITC-conjugated TCP-1 peptide for homing validation]”, in series [4], the “binding to blood vessels of cancer tissues” value was “bound” and the “binding to vasculature of normal colon tissues” value is “not to vasculature of normal colon tissues”. Moreover, in series [4] (positive/total patients), the “colon adenocarcinomas recognized by the peptide” value was 5/10 and the “rectal adenocarcinomas recognized by the peptide” value was 6/11. In series [5] (setting [8]), the “fluorescent signal in other control tissues” value is listed as “no specific fluorescent signal” and the “fluorescent signal in tumors, whole tissue under blue light” value is given as “strong fluorescent signal”. Also, in series [5] (500 nmol i.v., 20 hour circulation), the “smallest tumor size detected” value is 2 mm. In addition, in series [6], the “peptide localization in control organs” value is “not detectable” and the “peptide localization in tumor tissues (CD31 co-staining)” value (shortened to “peptide localization in tumor tissues”) is on record as “colocalised with CD31”. For the same substance, in series [7], the “peptide localization in control organs” value is on record as “not detectable” and the “peptide localization in tumor tissues” value is “colocalised with CD31”.

“FITC-CVQTAQLLC ({FITC}-CVQTAQLLC; cysteine pairing not given here) [FITC-labeled control peptide, FITC-conjugated negative control peptide, reference compound]”: in series [4], the “binding to blood vessels of cancer tissues” value is on record as “did not interact” and the “binding to vasculature of normal colon tissues” value is reported as “did not interact”. In series [5] (setting [8]), the “fluorescent signal in other control tissues” value is listed as “no specific fluorescent signal” and the “fluorescent signal in tumors, whole tissue under blue light” value is “no fluorescent signal”. Moreover, in series [5] (20 h after injection), the “peptide fluorescence in vasculature of tumor tissue (histological analysis)” value is “not detectable”. In addition, the “peptide localization in tumor tissues” value in series [6] was “not found”. Also, the “peptide localization in tumor tissues” value in series [7] is “not found”.

(Values after patent US8247378B2, “Homing peptide for tumor vasculature” (The Chinese University of Hong Kong, priority 2009, dated 2012).)
